Data reported in patent publication US4440786A, “Compounds with antiinflammatory and analgesic activity, process for the preparation thereof and pharmaceutical compositio ns therefrom” (Ausonia Farmaceutici s.r.l., priority 1981, dated 1984).
“Also recorded” adds a separate entry of the source. Like-named read-outs stand apart in the source and are kept apart here.

Columns and labels:
[1] = Contorsions caused by phenylquinone (analgesic activity); type: in vivo; details: mice, oral; phenylquinone 30 min after; acetylsalicylic acid 250, ibuprofen 100, paracetamol 100, diflunisal 25, MR 713 25 mg/kg
Text: The analgesic activity has been tested in mice using the contorsion test caused by phenylquinone. […] Phenylquinone has been administered thirty minutes after the substance under test and the results obtained are reported in Table II.
Contorsions Caused by Phenylquinone in Mice

[2] = Subplantar edema caused by carrageenan (antiinflammatory activity); type: in vivo; design: Volume of Paw in No. of Hours after the Treatment: 0 / Volume of Paw in No. of Hours after the Treatment: 1 / Volume of Paw in No. of Hours after the Treatment: 2 / Volume of Paw in No. of Hours after the Treatment: 3 / Volume of Paw in No. of Hours after the Treatment: 4 / Volume of Paw in No. of Hours after the Treatment: 5: dose or concentration left out as unconfirmed; details: rats, oral; for AREA % Inhibition vs. Control / AREA Absolute Value: paw volume 0-5 h, acetylsalicylic acid 250, ibuprofen 100, paracetamol 100, diflunisal 25, MR 713 25 mg/kg
Text: The experiments have been carried out with rats and carrageenan has been used as the agent causing edema.
Subplantar Edema Caused by Carrageenan in Rats

Acute toxicity, oral = type: in vivo; details: mice
[3] = Plasmatic levels half-life, oral; type: in vivo; details: rats, at equal dose
Description: The pharmacodynamic tests carried out in rats and administering MR 713 by the oral route in the doses of 25, 50, and 100 mg/kg, show a half-life time of plasmatic levels, which is possible to calculate in the dose of 25 mg/kg, of about eleven hours. […] The pharmacodynamic tests permit to administer one or at the most two daily doses of MR 713.

Solubility = type: physicochemical
[4] = rats fasted 18 h, oral, 6 h, MR 713 25 mg/kg

## O=C(O)c1cc(-c2ccc(F)cc2F)ccc1O [Diflunisal, diflunisal]
[1]
  % Inhibition vs. Controls (contorsions): 99.1%
  Average No. of Contorsions: 0.2 ± 0.2
  No. of Animals with Contorsions: 1/9
rat, in vivo, po, 25 mg/kg
  Average Size of Ulcer in mm: 0.7 ± 0.4 mm
[2]; 0 h
  Volume of Paw in No. of Hours after the Treatment: 0: 21.2
[2]; 1 h
  Volume of Paw in No. of Hours after the Treatment: 1: 25.6
[2]; 2 h
  Volume of Paw in No. of Hours after the Treatment: 2: 29.7
[2]; 3 h
  Volume of Paw in No. of Hours after the Treatment: 3: 31.0
[2]; 4 h
  Volume of Paw in No. of Hours after the Treatment: 4: 33.4
[2]; 5 h
  Volume of Paw in No. of Hours after the Treatment: 5: 33.1
[2]
  AREA % Inhibition vs. Control: 30.0%
  AREA Absolute Value: 190.7

## CC(C)Cc1ccc(C(C)C(=O)O)cc1 (stereo not shown) [Ibuprofen, ibuprofen]
[1]
  % Inhibition vs. Controls (contorsions): 99.1%
  Average No. of Contorsions: 0.2 ± 0.1
  No. of Animals with Contorsions: 2/10
rat, in vivo, po, 25 mg/kg
  Average Size of Ulcer in mm: 2.3 ± 0.7 mm
[4]
  gastric lesions / gastric tolerability: cause gastric lesions
[2]
  AREA % Inhibition vs. Control: 40.0%
  AREA Absolute Value: 163.7

## O=C(O)COc1ccc(-c2ccc(F)cc2F)cc1 [MR 713, (2',4'-difluoro-4-biphenyl)oxyacetic acid]
[1]
  % Inhibition vs. Controls (contorsions): 54.0%
  Average No. of Contorsions: 10.8 ± 2.8
  No. of Animals with Contorsions: 9/10
Acute toxicity, oral
  acute toxicity: very low acute toxicity
Acute toxicity, oral; mouse, in vivo, body weight, read-out: DL50 (the source's name)
  LD50: 790 mg/kg
[3]
  half-life time of plasmatic levels, compared with other drugs: substantially superior to the action of diflunisal
rat, in vivo, po, 25 mg/kg
  Average Size of Ulcer in mm: 0.3 ± 0.1 mm
  gastric lesions / gastric tolerability: causes even less gastric lesions as compared with drugs which are well-known to be tolerated at the gastric level, such as paracetamol and diflunisal
Solubility; chlorinated hydrocarbons
  solubility in chlorinated hydrocarbons: insoluble
Solubility; hot lower alcohols
  solubility in hot lower alcohols: soluble
Solubility; water
  solubility in water: essentially insoluble
[2]; MR 713 25 mg/kg, vs diflunisal same dose, paracetamol and ibuprofen four times larger dose, acetylsalicylic acid ten times larger dose, 25 mg/kg
  antiinflammatory activity compared with reference drugs: essentially the same as diflunisal; also recorded: substantially superior to paracetamol even when the latter is used in doses four times larger; also recorded: lower than that of ibuprofen; also recorded: essentially equivalent to the activity of acetylsalicylic acid
[2]
  AREA % Inhibition vs. Control: 31.0%
  AREA Absolute Value: 186.4

## CC(=O)Nc1ccc(O)cc1 [Paracetamol, p-acetylaminophenol]
[1]
  % Inhibition vs. Controls (contorsions): 63.4%
  Average No. of Contorsions: 8.6 ± 3.3
  No. of Animals with Contorsions: 5/10
rat, in vivo, po, 25 mg/kg
  Average Size of Ulcer in mm: 0.6 ± 0.4 mm
[2]
  AREA % Inhibition vs. Control: 10.0%
  AREA Absolute Value: 245.7

## CC(=O)Oc1ccccc1C(=O)O [acetylsalicylic acid, acetyl salicylic acid]
[1]
  % Inhibition vs. Controls (contorsions): 100%
  Average No. of Contorsions: 0
  No. of Animals with Contorsions: 0/10
rat, in vivo, po, 25 mg/kg
  Average Size of Ulcer in mm: 3.7 ± 0.8 mm
[4]
  gastric lesions / gastric tolerability: cause gastric lesions
[2]
  AREA % Inhibition vs. Control: 33.0%
  AREA Absolute Value: 182.4
